In patent publication US7537891B2, “Identification of polynucleotides for predicting activity of compounds that interact with and/or modulate protein tyrosine kinases and/or protein tyrosine kinase pathways in breast cells” (Bristol-Myers Squibb Company, priority 2002, dated 2009):

What was measured:
Assay in all cases: In vitro cytotoxicity assay (MTS)
Format in all cases: cell-based, human
Parameters in all cases: key to True Class: “S” represents Sensitive; “R” represents Resistant
AU-565 breast cell line = test system: AU-565 breast cell line
Experimental: (§1) The protein tyrosine kinase inhibitor compound (described in international application WO 00/62778, published Oct. 26, 2000) was tested for cytotoxicity in vitro against a panel of twenty-three human breast cell lines available from the American Type Culture Collection, ATCC, except H3396, which was obtained from Pacific Northwest Research Institute, Seattle Wash. The MCF7/Her2 cell line was established by stable transfection of MCF7 cells with the HER2 gene. Cytotoxicity was assessed in cells by the MTS (3-(4,5-dimethylthiazol-2-yl)-5-(3-carboxymethoxyphenyl)-2-(4-sulphenyl)-2H-tetrazolium, inner salt) assay (T. L. Riss et al., 1992, Mol. Biol. Cell, 3 (Suppl.):184a).
(§2) To carry out the assays, the breast cells were plated at 4,000 cells/well in 96 well microtiter plates, and 24 hours later, serially diluted drugs were added. The concentration range for the protein tyrosine kinase inhibitor compound BMS-A used in the cytotoxicity assay was from 5 μg/ml to 0.0016 μg/ml (roughly 10 μM to 0.0032 μM).
(§3) The cells were incubated at 37° C. for 72 hours at which time the tetrazolium dye, MTS (333 μg/ml final concentration), in combination with the electron coupling agent phenazine methosulfate (25 μM final concentration), was added. A dehydrogenase enzyme in live cells reduces the MTS to a form that absorbs light and can be quantified spectrophotometrically at 492 nM. The greater the absorbency the greater the number of live cells. The results are expressed as an IC50, which is the drug concentration required to inhibit cell proliferation (i.e. absorbance at 492 nm) to 50% of that of untreated control cells. The mean IC50 and standard deviation (SD) from multiple tests for each cell line were calculated.

BT-20 breast cell line = test system: BT-20 breast cell line
Experimental: as §1, §2, §3

BT-474 breast cell line = test system: BT-474 breast cell line
Experimental: as §1, §2, §3

HCC1428 breast cell line = test system: HCC1428 breast cell line
Experimental: as §1, §2, §3

HCC1806 breast cell line = test system: HCC1806 breast cell line
Experimental: as §1, §2, §3

HCC38 breast cell line = test system: HCC38 breast cell line
Experimental: as §1, §2, §3

HCC70 breast cell line = test system: HCC70 breast cell line
Experimental: as §1, §2, §3

MCF7 breast cell line = test system: MCF7 breast cell line
Experimental: as §1, §2, §3

[1] = test system: MCF7/Her2 breast cell line
Experimental: as §1, §2, §3

[2] = test system: MDA-MB-157 breast cell line
Experimental: as §1, §2, §3

[3] = test system: MDA-MB-231 breast cell line
Experimental: as §1, §2, §3

[4] = test system: MDA-MB-435S breast cell line
Experimental: as §1, §2, §3

[5] = test system: MDA-MB-436 breast cell line
Experimental: as §1, §2, §3

[6] = test system: MDA-MB-453 breast cell line
Experimental: as §1, §2, §3

[7] = test system: MDA-MB-468 breast cell line
Experimental: as §1, §2, §3

[8] = 72 hours, mean of 2 to 5 determinations, read-out: mean IC50 (μM) to BMS-A
[9] = assigned as in Table 1, based on the IC50 results for BMS-A
[10] = resistance/sensitivity to BMS-A based on IC50

Structure (SMILES): Cc1nc(Nc2ncc(C(=O)Nc3c(C)cccc3Cl)s2)cc(N2CCN(CCO)CC2)n1 [BMS-A]
- True Class (AU-565 breast cell line; AU565, assigned as in Table 1, based on the IC50 results for BMS-A): R
- IC50 (AU-565 breast cell line; AU-565, 72 hours, mean of 2 to 5 determinations, read-out: mean IC50 (μM) to BMS-A): 5.24 µM
- Classification (AU-565 breast cell line; AU-565, resistance/sensitivity to BMS-A based on IC50): Resistant (those having a log10(IC50) above the mean log10(IC50) were considered to be resistant)
- True Class (BT-20 breast cell line; BT20, assigned as in Table 1, based on the IC50 results for BMS-A): S
- IC50 (BT-20 breast cell line; BT-20, 72 hours, mean of 2 to 5 determinations, read-out: mean IC50 (μM) to BMS-A): 0.165 µM
- Classification (BT-20 breast cell line; BT-20, resistance/sensitivity to BMS-A based on IC50): Sensitive (The cell lines with a log10(IC50) below the mean log10(IC50) were defined as sensitive to the compound)
- True Class (BT-474 breast cell line; BT474, assigned as in Table 1, based on the IC50 results for BMS-A): R
- IC50 (BT-474 breast cell line; BT-474, 72 hours, mean of 2 to 5 determinations, read-out: mean IC50 (μM) to BMS-A): 6.74 µM
- Classification (BT-474 breast cell line; BT-474, resistance/sensitivity to BMS-A based on IC50): Resistant (those having a log10(IC50) above the mean log10(IC50) were considered to be resistant)
- IC50 (HCC1428 breast cell line; [8]): 7.29 µM
- True Class (HCC1428 breast cell line; [9]): R
- Classification (HCC1428 breast cell line; [10]): Resistant (those having a log10(IC50) above the mean log10(IC50) were considered to be resistant)
- IC50 (HCC1806 breast cell line; [8]): 0.219 µM
- True Class (HCC1806 breast cell line; [9]): S
- Classification (HCC1806 breast cell line; [10]): Sensitive (The cell lines with a log10(IC50) below the mean log10(IC50) were defined as sensitive to the compound)
- IC50 (HCC38 breast cell line; [8]): 6.63 µM
- True Class (HCC38 breast cell line; [9]): R
- Classification (HCC38 breast cell line; [10]): Resistant (those having a log10(IC50) above the mean log10(IC50) were considered to be resistant)
- IC50 (HCC70 breast cell line; [8]): 0.0337 µM
- True Class (HCC70 breast cell line; [9]): S
- Classification (HCC70 breast cell line; [10]): Sensitive (The cell lines with a log10(IC50) below the mean log10(IC50) were defined as sensitive to the compound)
- IC50 (MCF7 breast cell line; [8]): > 9.52 µM
- True Class (MCF7 breast cell line; [9]): R
- Classification (MCF7 breast cell line; [10]): Resistant (those having a log10(IC50) above the mean log10(IC50) were considered to be resistant)
- True Class ([1]; Her2MCF7, assigned as in Table 1, based on the IC50 results for BMS-A): R
- IC50 ([1]; MCF7/Her2, 72 hours, mean of 2 to 5 determinations, read-out: mean IC50 (μM) to BMS-A): > 9.52 µM
- Classification ([1]; MCF7/Her2, resistance/sensitivity to BMS-A based on IC50): Resistant (those having a log10(IC50) above the mean log10(IC50) were considered to be resistant)
- IC50 ([2]; MDA-MB-157, 72 hours, mean of 2 to 5 determinations, read-out: mean IC50 (μM) to BMS-A): 0.0055 µM
- Classification ([2]; MDA-MB-157, resistance/sensitivity to BMS-A based on IC50): Sensitive (The cell lines with a log10(IC50) below the mean log10(IC50) were defined as sensitive to the compound)
- True Class ([2]; MDAMB157, assigned as in Table 1, based on the IC50 results for BMS-A): S
- IC50 ([3]; MDA-MB-231, 72 hours, mean of 2 to 5 determinations, read-out: mean IC50 (μM) to BMS-A): 0.0095 µM
- Classification ([3]; MDA-MB-231, resistance/sensitivity to BMS-A based on IC50): Sensitive (The cell lines with a log10(IC50) below the mean log10(IC50) were defined as sensitive to the compound)
- True Class ([3]; MDAMB231, assigned as in Table 1, based on the IC50 results for BMS-A): S
- IC50 ([4]; MDA-MB-435S, 72 hours, mean of 2 to 5 determinations, read-out: mean IC50 (μM) to BMS-A): 7.78 µM
- Classification ([4]; MDA-MB-435S, resistance/sensitivity to BMS-A based on IC50): Resistant (those having a log10(IC50) above the mean log10(IC50) were considered to be resistant)
- True Class ([4]; MDAMB435S, assigned as in Table 1, based on the IC50 results for BMS-A): R
- IC50 ([5]; MDA-MB-436, 72 hours, mean of 2 to 5 determinations, read-out: mean IC50 (μM) to BMS-A): > 9.52 µM
- Classification ([5]; MDA-MB-436, resistance/sensitivity to BMS-A based on IC50): Resistant (those having a log10(IC50) above the mean log10(IC50) were considered to be resistant)
- True Class ([5]; MDAMB436, assigned as in Table 1, based on the IC50 results for BMS-A): R
- IC50 ([6]; MDA-MB-453, 72 hours, mean of 2 to 5 determinations, read-out: mean IC50 (μM) to BMS-A): > 9.52 µM
- Classification ([6]; MDA-MB-453, resistance/sensitivity to BMS-A based on IC50): Resistant (those having a log10(IC50) above the mean log10(IC50) were considered to be resistant)
- True Class ([6]; MDAMB453, assigned as in Table 1, based on the IC50 results for BMS-A): R
- IC50 ([7]; MDA-MB-468, 72 hours, mean of 2 to 5 determinations, read-out: mean IC50 (μM) to BMS-A): 7.13 µM
- Classification ([7]; MDA-MB-468, resistance/sensitivity to BMS-A based on IC50): Resistant (those having a log10(IC50) above the mean log10(IC50) were considered to be resistant)
- True Class ([7]; MDAMB468, assigned as in Table 1, based on the IC50 results for BMS-A): R
